The compounds below were run against human truncated cGAS enzyme (147-522 human cGAS) (Homo sapiens (Human), UniProt Q8N884) (assay: Quantification of cGAS protein inhibition (cGAMP formation measured by LC-MS/MS)). Conditions: reported for the potential mixture in solution of co-existing tautomers and/or racemates.
Format: biochemical
Procedure, shortened: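 Human cGAS 147-522 (30 nM) in Tris pH 7.5, NaCl, MgCl2, ZnCl2, Tween 20, started with 5 μM ISD 45 bp dsDNA, 0.5 mM GTP and 0.5 mM ATP. Incubated 1 h at room temperature, then quenched with acetonitrile/TFA. cGAMP quantified by LC-MS/MS against a labelled cGAMP internal standard; IC50 from ratio versus compound concentration.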

human truncated cGAS enzyme (147-522 human cGAS), sequence (Q8N884 147-522): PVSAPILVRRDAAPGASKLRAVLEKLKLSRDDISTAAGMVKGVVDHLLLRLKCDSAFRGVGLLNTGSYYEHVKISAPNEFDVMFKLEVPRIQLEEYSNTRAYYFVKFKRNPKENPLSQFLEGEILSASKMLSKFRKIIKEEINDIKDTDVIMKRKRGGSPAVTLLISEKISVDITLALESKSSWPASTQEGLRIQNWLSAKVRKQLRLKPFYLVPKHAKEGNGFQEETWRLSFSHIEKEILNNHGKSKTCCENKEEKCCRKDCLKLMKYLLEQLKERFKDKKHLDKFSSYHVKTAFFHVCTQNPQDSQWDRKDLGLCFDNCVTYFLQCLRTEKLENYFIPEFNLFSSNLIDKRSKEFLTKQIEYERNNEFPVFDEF

Row | Compound | IC50 [nM]
1 | COc1cc2c(-n3ccnc3)c(-c3nnc(CCO)[nH]3)n(C)c2c(C#N)c1Cl [Example 118, 6-chloro-2-(5-(2-hydroxyethyl)-4H-1,2,4-triazol-3-yl)-3-(1H-imidazol-1-yl)-5-methoxy-1-methyl-1H-indole-7-carbonitrile] | 291
2 | COc1cc2c(-n3ccnc3)c(-c3nnc(CCO)[nH]3)n(C)c2cc1Cl [Example 119, 2-(5-(6-chloro-3-(1H-imidazol-1-yl)-5-methoxy-1-methyl-1H-indol-2-yl)-4H-1,2,4-triazol-3-yl)ethan-1-ol] | 990
3 | COCC(c1nnc(-c2c(-n3ccnc3)c3cc(OC)c(Cl)c(F)c3n2C)[nH]1)N1CCOCC1 (stereo not drawn) [Example 126, 4-(1-(5-(6-chloro-7-fluoro-3-(1H-imidazol-1-yl)-5-methoxy-1-methyl-1H-indol-2-yl)-4H-1,2,4-triazol-3-yl)-2-methoxyethyl)morpholine] | 411
4 | COCC(c1nnc(-c2c(-n3ccnc3)c3cc(OC)c(Cl)c(F)c3n2C)[nH]1)N1CCC1 (stereo not drawn) [Example 127, 2-(5-(1-(azetidin-1-yl)-2-methoxyethyl)-4H-1,2,4-triazol-3-yl)-6-chloro-7-fluoro-3-(1H-imidazol-1-yl)-5-methoxy-1-methyl-1H-indole] | 487
5 | COCCN(C)C(C)c1nnc(-c2c(-n3ccnc3)c3cc(OC)c(Cl)c(F)c3n2C)[nH]1 (stereo not drawn) [Example 128, 1-(5-(6-chloro-7-fluoro-3-(1H-imidazol-1-yl)-5-methoxy-1-methyl-1H-indol-2-yl)-4H-1,2,4-triazol-3-yl)-N-(2-methoxyethyl)-N-methylethan-1-amine] | 454
6 | COCCNC(C)c1nnc(-c2c(-n3ccnc3)c3cc(OC)c(Cl)c(F)c3n2C)[nH]1 (stereo not drawn) [Example 129, 1-(5-(6-chloro-7-fluoro-3-(1H-imidazol-1-yl)-5-methoxy-1-methyl-1H-indol-2-yl)-4H-1,2,4-triazol-3-yl)-N-(2-methoxyethyl)ethan-1-amine] | 757
7 | COc1cc2c(-n3ccnc3)c(-c3nnc(C(C)N4CC5(COC5)C4)[nH]3)n(C)c2c(F)c1Cl (stereo not drawn) [Example 130, 6-(1-(5-(6-chloro-7-fluoro-3-(1H-imidazol-1-yl)-5-methoxy-1-methyl-1H-indol-2-yl)-4H-1,2,4-triazol-3-yl)ethyl)-2-oxa-6-azaspiro[3.3]heptane] | 268

Stronger by IC50, values ahead:

Row | IC50 [nM] | Compound
8 | 169 | Cn1c(-c2nnc(CCO)[nH]2)c(-n2ccnc2)c2cc(O)c(Cl)c(C#N)c21 [Example 117, 6-chloro-5-hydroxy-2-(5-(2-hydroxyethyl)-4H-1,2,4-triazol-3-yl)-3-(1H-imidazol-1-yl)-1-methyl-1H-indole-7-carbonitrile]
9 | 80 | COc1cc2c(-n3ccnc3)c(-c3nnc(C(C)N4CCOCC4)[nH]3)n(C)c2c(F)c1Cl (stereo not drawn) [Example 121, 4-(1-(5-(6-chloro-7-fluoro-3-(1H-imidazol-1-yl)-5-methoxy-1-methyl-1H-indol-2-yl)-4H-1,2,4-triazol-3-yl)ethyl)morpholine]
10 | 177 | COc1cc2c(-n3ccnc3)c(-c3nnc(C(C)N(C)C)[nH]3)n(C)c2c(F)c1Cl (stereo not drawn) [Example 122, 1-(5-(6-chloro-7-fluoro-3-(1H-imidazol-1-yl)-5-methoxy-1-methyl-1H-indol-2-yl)-4H-1,2,4-triazol-3-yl)-N,N-dimethylethan-1-amine]
11 | 121 | CNC(C)c1nnc(-c2c(-n3ccnc3)c3cc(OC)c(Cl)c(F)c3n2C)[nH]1 (stereo not drawn) [Example 123, 1-(5-(6-chloro-7-fluoro-3-(1H-imidazol-1-yl)-5-methoxy-1-methyl-1H-indol-2-yl)-4H-1,2,4-triazol-3-yl)-N-methylethan-1-amine]
12 | 120 | COC[C@@H](c1nnc(-c2c(-n3ccnc3)c3cc(OC)c(Cl)c(F)c3n2C)[nH]1)N(C)C [Example 124a, (R)-1-(5-(6-chloro-7-fluoro-3-(1H-imidazol-1-yl)-5-methoxy-1-methyl-1H-indol-2-yl)-4H-1,2,4-triazol-3-yl)-2-methoxy-N,N-dimethylethan-1-amine]
13 | 140 | COC[C@H](c1nnc(-c2c(-n3ccnc3)c3cc(OC)c(Cl)c(F)c3n2C)[nH]1)N(C)C [Example 124b, (S)-1-(5-(6-chloro-7-fluoro-3-(1H-imidazol-1-yl)-5-methoxy-1-methyl-1H-indol-2-yl)-4H-1,2,4-triazol-3-yl)-2-methoxy-N,N-dimethylethan-1-amine]
14 | 180 | CN[C@@H](COC)c1nnc(-c2c(-n3ccnc3)c3cc(OC)c(Cl)c(F)c3n2C)[nH]1 [Example 125a, (R)-1-(5-(6-chloro-7-fluoro-3-(1H-imidazol-1-yl)-5-methoxy-1-methyl-1H-indol-2-yl)-4H-1,2,4-triazol-3-yl)-2-methoxy-N-methylethan-1-amine]
15 | 180 | CN[C@H](COC)c1nnc(-c2c(-n3ccnc3)c3cc(OC)c(Cl)c(F)c3n2C)[nH]1 [Example 125b, (S)-1-(5-(6-chloro-7-fluoro-3-(1H-imidazol-1-yl)-5-methoxy-1-methyl-1H-indol-2-yl)-4H-1,2,4-triazol-3-yl)-2-methoxy-N-methylethan-1-amine]

Source: patent US12404261B2, “Compounds and compositions for treating conditions associated with cGAS” (Novartis AG, priority 2020, dated 2025)
